# Results: ChEMBL document CHEMBL5370604, “Identification of Micrococcin P2-Derivatives as Antibiotic Candidates against Two Gram-Positive Pathogens” (J Med Chem, 2023)
# Calls of active or inactive are those of the source. The calls are words filed in the database; no cut-off is given here.
# Key:
# Clostridioides difficile [1] = test: Antibacterial activity against Clostridioides difficile ATCC 43255 assessed as inhibition of bacterial growth measured after 24 hrs by CLSI based broth dilution method; assay type: functional
# Clostridioides difficile [2] = test: Antibacterial activity against Clostridioides difficile ribotype 027 infected in colitis induced C57BL/6J mouse assessed as survival rate at 30 mg/kg, po qd pretreated with clindamycin followed by […] infection and compound addition measured on day 5; assay type: functional; conditions: ribotype 027, 120 h, time 5 day
# Clostridioides difficile [3] = test: Antibacterial activity against Clostridioides difficile ribotype 027 infected in colitis induced C57BL/6J mouse assessed as increase in survival rate without recurrence at 30 mg/kg, po qd pretreated with clindamycin followed by […] infection and compound addition measured on day 5; assay type: functional; conditions: time 5 day
# Clostridioides difficile [4] = test: Antibacterial activity against Clostridioides difficile ribotype 027 infected in colitis induced C57BL/6J mouse assessed as increase in survival rate without recurrence at 30 mg/kg, po qd pretreated with clindamycin followed by […] infection and compound addition measured on day 15 to day 19; assay type: functional, organism-based; conditions: time 15-19 day
# [5] = (§1) Toxicity in colitis-induced C57BL/6J mouse infected with Clostridioides difficile ribotype 027 assessed as increase in Enterococcus proportion in gut at 30 mg/kg, po qd pretreated with clindamycin followed by infected with […] and measured on day 6 post treatment by RNA sequencing analysis (reference value: 0%); assay type: organism-based; conditions: in vivo, 144 h, time 6 day
# [6] = as §1, with “Klebsiella” for “Enterococcus”; assay type: organism-based; conditions: in vivo, 144 h, time 6 day
# [7] = as §1, with “Escherichia” for “Enterococcus”; assay type: organism-based; conditions: in vivo, 144 h, time 6 day
# [8] = as §1, with “in Klebsiella” for “in Enterococcus”, “day 20” for “day 6”; assay type: organism-based; conditions: in vivo, 480 h, time 20 day
# [9] = as §1, with “day 20” for “day 6”; assay type: organism-based; conditions: in vivo, 480 h, time 20 day
# [10] = as §1, with “in Escherichia” for “in Enterococcus”, “day 20” for “day 6”; assay type: organism-based; conditions: in vivo, 480 h, time 20 day
# Clostridioides difficile [11] = test: Antibacterial activity against Clostridioides difficile RT001/ST3/A+B+ assessed as inhibition of bacterial growth measured after 24 hrs by CLSI based broth dilution method; assay type: functional
# Clostridioides difficile [12] = test: Antibacterial activity against Clostridioides difficile RT002/ST8/A+B+ assessed as inhibition of bacterial growth measured after 24 hrs by CLSI based broth dilution method; assay type: functional
# Clostridioides difficile [13] = test: Antibacterial activity against Clostridioides difficile RT012/ST54/A+B+ assessed as inhibition of bacterial growth measured after 24 hrs by CLSI based broth dilution method; assay type: functional
# Clostridioides difficile [14] = test: Antibacterial activity against Clostridioides difficile RT014/ST14/A+B+ assessed as inhibition of bacterial growth measured after 24 hrs by CLSI based broth dilution method; assay type: functional
# Clostridioides difficile [15] = test: Antibacterial activity against Clostridioides difficile RT015/ST35/A+B+ assessed as inhibition of bacterial growth measured after 24 hrs by CLSI based broth dilution method; assay type: functional
# Clostridioides difficile [16] = test: Antibacterial activity against Clostridioides difficile RT018/ST17/A+B+ assessed as inhibition of bacterial growth measured after 24 hrs by CLSI based broth dilution method; assay type: functional
# Clostridioides difficile [17] = test: Antibacterial activity against Clostridioides difficile RT293/ST129/A+B+ assessed as inhibition of bacterial growth measured after 24 hrs by CLSI based broth dilution method; assay type: functional
# Clostridioides difficile [18] = test: Antibacterial activity against Clostridioides difficile RT027/ST1/A+B+CDT+ assessed as inhibition of bacterial growth measured after 24 hrs by CLSI based broth dilution method; assay type: functional
# Clostridioides difficile [19] = test: Antibacterial activity against Clostridioides difficile NT/ST67/A+B+CDT+ assessed as inhibition of bacterial growth measured after 24 hrs by CLSI based broth dilution method; assay type: functional
# Clostridioides difficile [20] = test: Antibacterial activity against Clostridioides difficile RT130/ST5/A+B+CDT+ assessed as inhibition of bacterial growth measured after 24 hrs by CLSI based broth dilution method; assay type: functional
# Clostridioides difficile [21] = test: Antibacterial activity against Clostridioides difficile NT/ST221/A+B+CDT+ assessed as inhibition of bacterial growth measured after 24 hrs by CLSI based broth dilution method; assay type: functional
# Clostridioides difficile [22] = test: Antibacterial activity against Clostridioides difficile RT017/ST37/A-B+ assessed as inhibition of bacterial growth measured after 24 hrs by CLSI based broth dilution method; assay type: functional
# Clostridioides difficile [23] = test: Antibacterial activity against Clostridioides difficile RT078/ST11/A+B+CDT+ assessed as inhibition of bacterial growth measured after 24 hrs by CLSI based broth dilution method; assay type: functional
# Clostridioides difficile [24] = test: Antibacterial activity against Clostridioides difficile ribotype 027 infected in colitis induced C57BL/6J mouse assessed as increase in survival rate without recurrence at 30 mg/kg, po qd pretreated with clindamycin followed by […] infection and compound addition measured on day 10 to day 11; assay type: functional, organism-based; conditions: time 10-11 day
smiles,measurement,setting,value
CN[C@H](CC(C)C)C(=O)N[C@H]1C(=O)N[C@@H](CC(N)=O)C(=O)N[C@H]2C(=O)N[C@H]3C(=O)N[C@H](C(=O)N[C@H](C(=O)O)c4cc(O)cc(O)c4-c4cc3ccc4O)[C@H](O)c3ccc(c(Cl)c3)Oc3cc2cc(c3O[C@@H]2O[C@H](CO)[C@@H](O)[C@H](O)[C@H]2O[C@H]2C[C@](C)(N)[C@H](O)[C@H](C)O2)Oc2ccc(cc2Cl)[C@H]1O [VANCOMYCIN],MIC,Clostridioides difficile [1],1 µg/mL
same,survival at 30 mg/kg,Clostridioides difficile [2],40%
same,Activity,Clostridioides difficile [3],30%
same,Activity,Clostridioides difficile [4],inactive
same,Activity,[5],0%
same,Activity,[6],8.78%
same,Activity,[7],24.55%
same,Activity,[8],1.39%
same,Activity,[9],21.53%
same,Activity,[10],5.22%
same,MIC,Clostridioides difficile [11],1 µg/mL
same,MIC,Clostridioides difficile [12],1 µg/mL
same,MIC,Clostridioides difficile [13],1 µg/mL
same,MIC,Clostridioides difficile [14],1 µg/mL
same,MIC,Clostridioides difficile [15],0.5 µg/mL
same,MIC,Clostridioides difficile [16],1 µg/mL
same,MIC,Clostridioides difficile [17],1 µg/mL
same,MIC,Clostridioides difficile [18],1 µg/mL
same,MIC,Clostridioides difficile [19],2 µg/mL
same,MIC,Clostridioides difficile [20],1 µg/mL
same,MIC,Clostridioides difficile [21],2 µg/mL
same,MIC,Clostridioides difficile [22],0.5 µg/mL
same,MIC,Clostridioides difficile [23],1 µg/mL
CCc1c(Cl)c(O)c(Cl)c(O)c1C(=O)O[C@H]1[C@H](O)[C@H](OC)[C@H](OC/C2=C\C=C\C[C@H](O)/C(C)=C/[C@H](CC)[C@@H](O[C@@H]3OC(C)(C)[C@@H](OC(=O)C(C)C)[C@H](O)[C@@H]3O)/C(C)=C/C(C)=C/C[C@@H]([C@@H](C)O)OC2=O)O[C@@H]1C [FIDAXOMICIN],survival at 30 mg/kg,Clostridioides difficile [2],40%
same,Activity,Clostridioides difficile [24],inactive
